SMILES strings stand for the structures.

Experimental findings from patent US20240092761A1, “QUINAZOLINE COMPOUNDS AND METHODS OF USE” (IAMBIC THERAPEUTICS, INC., priority 2022, published 2024) are described below.

For experiment [1], the target named is CDK1/Cyclin B1 (Homo sapiens (Human), UniProt P06493). Nature of the experiment: CDK1/Cyclin B1 ADP-Glo Kinase Assay. The experiment is classed as biochemical. Particulars: 80 uM ATP. In a few lines:
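Luminescent ADP-Glo detection of ADP produced over 90 min at room temperature. Enzyme complex 4.917 nM, pre-exposed 30 min to inhibitor; ATP 80 µM (near Km 78.6 µM), substrate 0.75 µM, HEPES pH 7.5, 2% DMSO. Fractional velocity fitted to 4-parameter IC50 equation.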

Experiment [2] has as its target CDK2/Cyclin E1 full length (Homo sapiens (Human), UniProt P24941). Nature of the experiment: CDK2/Cyclin E1 Full Length ADP-Glo Kinase Assay. The experiment is classed as biochemical. Particulars: 20 uM ATP, read-out: CDK2/ CyclinE1 IC50. The essentials:
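ADP-Glo luminescence read-out of ADP formed by 0.328 nM wild-type full-length CDK2/Cyclin E1, 90 min at room temperature with 0.75 uM substrate and 20 uM ATP (Km 64.78 uM), after 30 min enzyme–inhibitor pre-incubation; 50 mM HEPES pH 7.5, 2% DMSO. Four-parameter IC50 fit.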

Experiment [3] has as its target CDK4/Cyclin D1 (Homo sapiens (Human), UniProt P11802). As to the kind of experiment: CDK4/Cyclin D1 CHEF Assay (AQT0258 peptide). The experiment is classed as biochemical. The note with it: 200 uM ATP, read-out: CDK4/ CyclinD1 AQT IC50. The essentials:
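CDK4/Cyclin D1 (2.5 nM) phosphorylating 10 uM Sox-labelled peptide AQT0258 with 200 uM ATP (Km 195.2 uM), 10 mM MgCl2, 2% DMSO, 54 mM HEPES pH 7.5. Enzyme and inhibitor pre-incubated 30 min, reaction 3 hrs at 22° C.; CHEF fluorescence (ex 360/em 485 nm), IC50 from fractional velocity, 4-parameter fit.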

The target in experiment [4] is CDK6/Cyclin D3 (Homo sapiens (Human), UniProt Q00534). As to the kind of experiment: CDK6/Cyclin D3 ADP-Glo Kinase Assay. The experiment is classed as biochemical. Particulars: 100 uM ATP, read-out: CDK6/ CyclinD3 IC50. In a few lines: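 Luminescent ADP-Glo read-out of ADP produced, used to fit IC50 (4-parameter equation on fractional velocity against inhibitor concentration). Kinase reaction: enzyme and inhibitor together 30 min, then ATP-containing substrate added for 90 min, all at room temperature.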

The subject of experiment [5] is MCF-7 cells. As to the kind of experiment: Cell Growth Inhibition, MCF-7 (CellTiterGlo, 6 days). The experiment is classed as cell-based. The note with it: MCF-7, 6-day treatment, CellTiterGlo 2.0. In a few lines: (§1)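 Compounds were run in half-log series, usually 10–10,000 nM, with 500 cells/well of OVCAR-3 or MCF-7 in RPMI plus 10% FBS. After a 6-day culture at 37 °C, viability was read by CellTiterGlo luminescence. Inhibition relative to control was fitted (four-parameter, variable slope) for IC50.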

In experiment [6] the test system is OVCAR-3 cells. Nature of the experiment: Cell Growth Inhibition, OVCAR-3 (CellTiterGlo, 6 days). Particulars: OVCAR-3, 6-day treatment, CellTiterGlo 2.0. The experiment is classed as cell-based. In a few lines: as §1

Sequence of CDK6/Cyclin D3 (Q00534 whole entry): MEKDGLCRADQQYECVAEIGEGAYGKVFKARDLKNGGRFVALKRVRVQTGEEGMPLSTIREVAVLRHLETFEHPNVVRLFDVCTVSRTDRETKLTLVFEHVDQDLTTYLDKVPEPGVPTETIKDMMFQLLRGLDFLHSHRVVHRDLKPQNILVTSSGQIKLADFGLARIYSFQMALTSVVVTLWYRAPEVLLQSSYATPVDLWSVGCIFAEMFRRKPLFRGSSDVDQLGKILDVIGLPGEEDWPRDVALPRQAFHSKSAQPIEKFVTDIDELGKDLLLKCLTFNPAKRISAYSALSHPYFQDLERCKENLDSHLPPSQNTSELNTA
Sequence of CDK6/Cyclin D3 (P30281 whole entry partner): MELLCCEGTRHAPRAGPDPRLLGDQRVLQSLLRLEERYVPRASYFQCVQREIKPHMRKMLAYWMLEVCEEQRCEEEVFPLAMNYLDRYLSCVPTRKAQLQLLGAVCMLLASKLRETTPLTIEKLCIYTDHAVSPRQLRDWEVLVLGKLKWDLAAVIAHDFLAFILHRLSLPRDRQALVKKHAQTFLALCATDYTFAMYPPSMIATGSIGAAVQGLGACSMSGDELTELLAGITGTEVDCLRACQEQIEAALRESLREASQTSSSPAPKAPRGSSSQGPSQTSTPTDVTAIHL
Sequence of CDK1/Cyclin B1 (P06493 whole entry): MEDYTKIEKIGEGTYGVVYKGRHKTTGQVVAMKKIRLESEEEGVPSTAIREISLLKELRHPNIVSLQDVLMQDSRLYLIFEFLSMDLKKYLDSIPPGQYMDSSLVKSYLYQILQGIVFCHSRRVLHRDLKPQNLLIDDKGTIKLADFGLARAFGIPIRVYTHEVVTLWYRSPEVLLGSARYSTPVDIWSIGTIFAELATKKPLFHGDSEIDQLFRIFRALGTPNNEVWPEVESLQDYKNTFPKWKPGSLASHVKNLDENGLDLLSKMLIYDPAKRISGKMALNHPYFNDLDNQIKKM
Sequence of CDK1/Cyclin B1 (P14635 whole entry partner): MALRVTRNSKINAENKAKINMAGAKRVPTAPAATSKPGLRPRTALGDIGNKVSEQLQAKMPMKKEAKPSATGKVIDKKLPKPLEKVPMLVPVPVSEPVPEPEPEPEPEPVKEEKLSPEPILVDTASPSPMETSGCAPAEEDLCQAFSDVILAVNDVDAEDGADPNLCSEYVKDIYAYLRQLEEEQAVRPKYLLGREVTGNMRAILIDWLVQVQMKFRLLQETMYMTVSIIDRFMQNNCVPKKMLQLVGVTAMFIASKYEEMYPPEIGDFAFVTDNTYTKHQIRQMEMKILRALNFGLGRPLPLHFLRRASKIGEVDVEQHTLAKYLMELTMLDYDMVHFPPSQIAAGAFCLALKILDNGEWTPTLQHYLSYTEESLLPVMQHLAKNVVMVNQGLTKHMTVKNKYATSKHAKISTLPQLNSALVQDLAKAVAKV
Sequence of CDK4/Cyclin D1 (P11802 whole entry): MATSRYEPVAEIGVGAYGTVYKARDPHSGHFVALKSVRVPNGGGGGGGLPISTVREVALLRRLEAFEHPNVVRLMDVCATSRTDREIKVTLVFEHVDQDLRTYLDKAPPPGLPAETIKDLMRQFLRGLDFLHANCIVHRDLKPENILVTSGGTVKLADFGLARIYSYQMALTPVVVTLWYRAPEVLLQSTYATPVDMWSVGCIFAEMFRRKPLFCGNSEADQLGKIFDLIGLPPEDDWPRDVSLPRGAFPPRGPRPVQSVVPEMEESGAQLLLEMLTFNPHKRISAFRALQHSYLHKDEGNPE
Sequence of CDK4/Cyclin D1 (P24385 whole entry partner): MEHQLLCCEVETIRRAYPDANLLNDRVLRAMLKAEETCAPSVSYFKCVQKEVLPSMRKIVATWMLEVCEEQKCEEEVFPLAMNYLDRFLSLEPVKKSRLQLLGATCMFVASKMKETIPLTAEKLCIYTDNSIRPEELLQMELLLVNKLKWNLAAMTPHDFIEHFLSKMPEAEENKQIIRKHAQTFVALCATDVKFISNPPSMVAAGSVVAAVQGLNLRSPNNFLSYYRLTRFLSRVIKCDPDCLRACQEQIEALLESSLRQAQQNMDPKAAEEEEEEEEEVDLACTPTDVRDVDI

For `CS(=O)(=O)N1CCC(Nc2ncc3cccc(N4CC(F)(F)C5(CNC5)C4)c3n2)CC1` [Example 109, 8-(8,8-difluoro-2,6-diazaspiro[3.4]octan-6-yl)-N-(1-(methylsulfonyl)piperidin-4-yl)quinazolin-2-amine], the IC50 is below 200 nM in experiment [1]; below 200 nM in experiment [2]; below 200 nM in experiment [3]; below 200 nM in experiment [4]; 500 to 2000 nM in experiment [5] (Homo sapiens, MCF7, 144 h); 500 to 2000 nM in experiment [6] (Homo sapiens, 144 h).

`CS(=O)(=O)N1CCC(Nc2ncc3cccc(N4CC5(CNCC5(F)F)C4)c3n2)CC1` [Example 111, 8-(8,8-difluoro-2,6-diazaspiro[3.4]octan-2-yl)-N-(1-(methylsulfonyl)piperidin-4-yl)quinazolin-2-amine]: the IC50 is 500 to 2000 nM in experiment [1]; below 200 nM in experiment [2]; below 200 nM in experiment [3]; below 200 nM in experiment [4]; 500 to 2000 nM in experiment [5] (Homo sapiens, MCF7, 144 h); 500 to 2000 nM in experiment [6] (Homo sapiens, 144 h).

As to `O=S(=O)(CC1CCC1)N1CCC(Nc2ncc3cc(C(F)F)cc(N4CCC5(CNC5)C4)c3n2)CC1` [Example 84, N-(1-((cyclobutylmethyl)sulfonyl)piperidin-4-yl)-6-(difluoromethyl)-8-(2,6-diazaspiro[3.4]octan-6-yl)quinazolin-2-amine], the IC50 is 200 to 500 nM in experiment [1]; below 200 nM in experiment [2]; below 200 nM in experiment [3]; below 200 nM in experiment [4]; 500 to 2000 nM in experiment [5] (Homo sapiens, MCF7, 144 h); 500 to 2000 nM in experiment [6] (Homo sapiens, 144 h).

For `COCCN1CC2(CC(c3cc(C(F)F)cc4cnc(NC5CCN(S(C)(=O)=O)CC5)nc34)C2)C1` [Example 89, 6-(difluoromethyl)-8-(2-(2-methoxyethyl)-2-azaspiro[3.3]heptan-6-yl)-N-(1-(methylsulfonyl)piperidin-4-yl)quinazolin-2-amine], the IC50 in experiment [1] was below 200 nM; in experiment [2] it was below 200 nM; in experiment [3], below 200 nM; in experiment [4], below 200 nM; in experiment [5] (Homo sapiens, MCF7, 144 h) it was 200 to 500 nM; in experiment [6] (Homo sapiens, 144 h) it was below 200 nM.

On to `O[C@@H]1COCC[C@H]1Nc1ncc2cc(C(F)F)cc(N3CC(F)(F)C4(CNC4)C3)c2n1` (racemic) [Example 117, (3S,4R)-4-((8-(8,8-difluoro-2,6-diazaspiro[3.4]octan-6-yl)-6-(difluoromethyl)quinazolin-2-yl)amino)tetrahydro-2H-pyran-3-ol], for which the IC50 in experiment [1] was above 2000 nM; in experiment [2], below 200 nM; in experiment [3], below 200 nM; in experiment [4] it was below 200 nM; in experiment [5] (Homo sapiens, MCF7, 144 h), 500 to 2000 nM; in experiment [6] (Homo sapiens, 144 h), above 2000 nM.

Regarding `O=S(=O)(C1CC1)N1CCC(Nc2ncc3cc(C(F)F)cc(N4CC5(CCNC5)C4)c3n2)CC1` [Example 74, N-(1-(cyclopropylsulfonyl)piperidin-4-yl)-6-(difluoromethyl)-8-(2,6-diazaspiro[3.4]octan-2-yl)quinazolin-2-amine], the IC50 in experiment [1] is below 200 nM; in experiment [2] it was below 200 nM; in experiment [3] it was below 200 nM; in experiment [4], below 200 nM; in experiment [5] (Homo sapiens, MCF7, 144 h) it was 200 to 500 nM; in experiment [6] (Homo sapiens, 144 h) it was 200 to 500 nM.

Take `CN1CC2(CCN(c3cc(C(F)F)cc4cnc(NC5CCN(S(=O)(=O)C6CC6)CC5)nc34)C2)C1` [Example 77, N-(1-(cyclopropylsulfonyl)piperidin-4-yl)-6-(difluoromethyl)-8-(2-methyl-2,6-diazaspiro[3.4]octan-6-yl)quinazolin-2-amine]: the IC50 in experiment [1] was below 200 nM; in experiment [2], below 200 nM; in experiment [3], below 200 nM; in experiment [4], below 200 nM; in experiment [5] (Homo sapiens, MCF7, 144 h), 200 to 500 nM; in experiment [6] (Homo sapiens, 144 h), 500 to 2000 nM.

On to `CN1CC(n2cc(Nc3ncc4cc(C(F)F)cc(N5CC6(CN(C)C6)C5)c4n3)cn2)C1` [Example 59, 6-(difluoromethyl)-8-(6-6-methyl-2,6-diazaspiro[3.3]heptan-2-yl)-N-(1-(1-methylazetidin-3-yl)-1H-pyrazol-4-yl)quinazolin-2-amine], for which the IC50 in experiment [1] was above 2000 nM; in experiment [2], 500 to 2000 nM; in experiment [3] it was 200 to 500 nM; in experiment [4], 500 to 2000 nM; in experiment [5], above 2000 nM; in experiment [6] it was above 2000 nM.

For `CN1CC2(CCN(c3cc(C(F)F)cc4cnc(NC5CCN(S(=O)(=O)C6(C)CC6)CC5)nc34)C2)C1` [Example 83, 6-(difluoromethyl)-8-(2-methyl-2,6-diazaspiro[3.4]octan-6-yl)-N-(1-((1-methylcyclopropyl)sulfonyl)piperidin-4-yl)quinazolin-2-amine], the IC50 was 200 to 500 nM in experiment [1]; below 200 nM in experiment [2]; below 200 nM in experiment [3]; below 200 nM in experiment [4]; 500 to 2000 nM in experiment [5] (Homo sapiens, MCF7, 144 h); 500 to 2000 nM in experiment [6] (Homo sapiens, 144 h).

As for `CS(=O)(=O)N1CCC(Nc2ncc3cc(C(F)F)cc(N4CC5(CCNCC5(F)F)C4)c3n2)CC1` [Example 94, 8-(5,5-difluoro-2,7-diazaspiro[3.5]nonan-2-yl)-6-(difluoromethyl)-N-(1-(methylsulfonyl)piperidin-4-yl)quinazolin-2-amine], the IC50 in experiment [1] is below 200 nM; in experiment [2], below 200 nM; in experiment [3] it was below 200 nM; in experiment [4], below 200 nM; in experiment [5] (Homo sapiens, MCF7, 144 h) it was 500 to 2000 nM; in experiment [6] (Homo sapiens, 144 h) it was 500 to 2000 nM.

For the molecule `CN1CCc2cc(Nc3ncc4cc(C(F)F)cc(N5CC6(C5)CN(C5CC5)C6)c4n3)ccc2C1` [Example 79, 8-(6-cyclopropyl-2,6-diazaspiro[3.3]heptan-2-yl)-6-(difluoromethyl)-N-(2-methyl-1,2,3,4-tetrahydroisoquinolin-6-yl)quinazolin-2-amine], the IC50 was above 2000 nM in experiment [1]; 200 to 500 nM in experiment [2]; below 200 nM in experiment [3]; below 200 nM in experiment [4]; 500 to 2000 nM in experiment [5] (Homo sapiens, MCF7, 144 h); 500 to 2000 nM in experiment [6] (Homo sapiens, 144 h).

Consider `CS(=O)(=O)N1CCC(Nc2ncc3cc(C(F)(F)F)cc(N4CC5(CNCC5(F)F)C4)c3n2)CC1` [Example 116, 8-(8,8-difluoro-2,6-diazaspiro[3.4]octan-2-yl)-N-(1-(methylsulfonyl)piperidin-4-yl)-6-(trifluoromethyl)quinazolin-2-amine], for which the IC50 in experiment [1] is 500 to 2000 nM; in experiment [2], below 200 nM; in experiment [3], below 200 nM; in experiment [4], below 200 nM; in experiment [5] (Homo sapiens, MCF7, 144 h), 500 to 2000 nM; in experiment [6] (Homo sapiens, 144 h) it was above 2000 nM.

Turning to `O=S(=O)(N1CCC(Nc2ncc3cc(C(F)F)cc(C4CC5(CCNC5)C4)c3n2)CC1)C1(C(F)F)CC1` (stereo not drawn) [Example 91, 6-(difluoromethyl)-N-(1-((1-(difluoromethyl)cyclopropyl)sulfonyl)piperidin-4-yl)-8-(6-azaspiro[3.4]octan-2-yl)quinazolin-2-amine], the IC50 in experiment [1] was below 200 nM; in experiment [2], below 200 nM; in experiment [3] it was below 200 nM; in experiment [4], below 200 nM; in experiment [5] (Homo sapiens, MCF7, 144 h) it was 200 to 500 nM; in experiment [6] (Homo sapiens, 144 h), below 200 nM.

`CS(=O)(=O)N1CCC(Nc2ncc3cccc(C4CC5(CNCCO5)C4)c3n2)CC1` (stereo not drawn) [Example 110, N-(1-(methylsulfonyl)piperidin-4-yl)-8-(5-oxa-8-azaspiro[3.5]nonan-2-yl)quinazolin-2-amine]: the IC50 in experiment [1] is below 200 nM; in experiment [2], below 200 nM; in experiment [3], below 200 nM; in experiment [4] it was below 200 nM; in experiment [5] (Homo sapiens, MCF7, 144 h), 500 to 2000 nM; in experiment [6] (Homo sapiens, 144 h), 500 to 2000 nM.
